Results reported in paper PMC5762338, “A novel orally available Syk/Src/Jak2 inhibitor, SKLB-850, showed potent anti-tumor activities in B cell lymphoma (BCL) models” (Oncotarget, 2017).

Key:
[1] = test system: Ramos cells; test: Apoptosis assay, AnnexinV-FITC/propidium iodide FCM; assay type: cell-based, Human; details: treatment for 18 hours
Method: Figure 1 The chemical structure of SKLB-850 and its anti-tumor effects in vitro (A) The chemical structure of SKLB-850. (B and C) Apoptosis of Ramos cells induced by SKLB-850. Cells were treated by vehicle, R788 or indicated concentrations of compounds. After 18 hours, Cell were harvested and stained with AnnexinV-FITC and propidium iodide, then the apoptosis cells were analyzed by FCM. (D and E) Apoptosis of HBL-1 cells induced by SKLB-850. Cells were treated by vehicle, R788 or indicated concentrations of compounds. After 24 hours, Cell were harvested and stained with AnnexinV-FITC and propidium iodide, then the apoptosis cells were analyzed by FCM. […] Columns, mean; bars, SD. ^##P<0.01, or ^#P<0.05, SKLB-850 group versus vehicle group. […]
The ability of SKLB-850 to induce apoptosis of BCL cells was analyzed by FCM. […]
Flow cytometry (FCM) assays were performed to investigate the apoptosis of Ramos and HBL-1 cells induced by SKLB-850. […] Cell apoptosis was analyzed with a flow cytometer (BD FACSCalibur, BD, USA).

[2] = test system: HBL-1 cells; test: Cell cycle analysis by FCM; assay type: cell-based, Human; details: HBL-1, compared with the control, 18 hours
Method: (§1) FCM was again used to examine the influence of SKLB-850 on the tumor cell cycle.
(§2) Figure 2 Cell cycle analysis of Ramos and HBL-1 cells induced by SKLB-850, R788 DMSO or control Tumor cells were treated by vehicle, R788 or indicated concentrations of compounds. After 18 hours, cell were harvested and stained with AnnexinV-FITC and propidium iodide, and then analyzed by FCM. […] (A and C) Cell cycle analysis of Ramos cells. (B and D) Cell cycle analysis of HBL-1 cells. […] Columns, mean; bars, SD.^##P < 0.01, 850 group versus DMSO or blank control group.
(§3) Ramos and HBL-1 cells cultured in 6-well plates were treated with DMSO, R788, SKLB-850 or medium. After 18 hours, cells were harvested and washed with PBS, fixed with 70% ethanol for 30 min, stained with 200 μL PI (50 μg/mL PI with 1 mg/mL RNase I, and 0.1% Triton X-100) for 30 min. Cell cycle was analyzed with a flow cytometer (BD FACSCalibur, BD, USA).

[3] = test system: Ramos cells; test: Cell cycle analysis by FCM; assay type: cell-based, Human; details: 18 hours; for percentages of cells in the G2 phase (in words): compared with the control
Method: as §1, §2, §3

[4] = test system: Ramos tumors; test: In situ TUNEL of tumor tissues from the Ramos model; assay type: in vivo, NOD/SCID mice
From the text: The ability of inducing apoptosis of SKLB-850 in tumor tissues was examined by TUNEL. […] We then examined apoptotic tumor cells in B-cell lymphoma samples from BCL patients after SKLB-850 treatment by FCM. As shown in Figure 6C and 6F, SKLB-850 induced cell apoptosis (14.10 ± 4.04%), and R788 had the same effect but relatively weak (7.60 ± 0.52%). To better understand the mechanism of antitumor activities in vivo, Ki67 and CD20 in mouse tumor tissues were detected by immunohischemistry; Ki67 was a marker of proliferation in the diagnosis of tumors and CD20 was highly expressed in B cell lymphomas.
Cell apoptosis in Ramos tumors was determined by a TUNEL assay following the manufacturer’s instructions (Promega). The number of TUNEL-positive cells was quantified by fluorescence microscopy and the apoptotic index in 6 random fields per group was counted.

Compound | percentages of apoptotic cells (in words) [1] | percentages of cells in the G2 phase (in words) [2] | percentage of G2 phase cells ([3]; 0.01μg/mL, control 19.64 ± 0.61 %) | percentages of cells in the G2 phase (in words) [3] | apoptosis in tumor tissues (TUNEL) [4]
CN1CCN(c2ccc(Nc3ncc(F)c(Nc4ccc(Cl)cc4C(N)=O)n3)cc2)CC1 [SKLB-850, 5-chloro-2-((5-fluoro-2-((4-(4-methylpiperazin-1-yl)phenyl)amino)pyrimidin-4-yl)amino) benzamide] | dose-dependently increased | significantly increased | 53.90 ± 2.65% | significantly increased | 406.00 ± 20.70 % of control
COc1cc(Nc2ncc(F)c(Nc3ccc4c(n3)N(COP(=O)(O)O)C(=O)C(C)(C)O4)n2)cc(OC)c1OC [R788, reference compound] | induced apoptosis but obviously much weaker | very weak effect |  | very weak effect | 242.20 ± 20.00 % of control
